# Data taken from ChEMBL document CHEMBL4680126, “Indazolyl-substituted piperidin-4-yl-aminopyrimidines as HIV-1 NNRTIs: Design, synthesis and biological activities” (Eur J Med Chem, 2020).
# pEC50: −log10 of the molar value.
# Experiments:
# [1] = system: Human immunodeficiency virus 1; test: Antiviral activity against HIV-1 K103N mutant strain infected in human MT4 cells assessed as reduction in virus-induced cytopathogenicity by MTT assay; format: functional, organism-based; details: Human immunodeficiency virus 1, MT4
# [2] = system: Human immunodeficiency virus 2; test: Antiviral activity against HIV-2 ROD strain infected in human MT4 cells assessed as reduction in virus-induced cytopathogenicity by MTT assay; details: Human immunodeficiency virus 2, ISOLATE ROD
# [3] = system: Human immunodeficiency virus 1; test: Antiviral activity against HIV-1 Y181C mutant strain infected in human MT4 cells assessed as reduction in virus-induced cytopathogenicity by MTT assay; format: functional, organism-based; details: Human immunodeficiency virus 1, MT4
# [4] = system: Human immunodeficiency virus 1; test: Antiviral activity against HIV-1 E138K mutant strain infected in human MT4 cells assessed as reduction in virus-induced cytopathogenicity by MTT assay; format: functional, organism-based; details: Human immunodeficiency virus 1, MT4
# [5] = Selectivity index, ratio of CC50 for cytotoxicity against human MT4 cells reduction in cell viability by MTT assay to EC50 for antiviral activity against wild type HIV-1 strain IIIB infected in human MT4 cells assessed as reduction in virus-induced cytopathogenicity by MTT assay; format: toxicity, cell-based; details: read-out: Selectivity Index
# [6] = system: Human immunodeficiency virus 1; test: Antiviral activity against wild type HIV-1 strain 3B infected in human MT4 cells assessed as reduction in virus-induced cytopathogenicity by MTT assay; format: functional, organism-based; details: Human immunodeficiency virus 1, 3B
# [7] = system: Human immunodeficiency virus 1; test: Antiviral activity against HIV-1 RES056 mutant strain infected in human MT4 cells assessed as reduction in virus-induced cytopathogenicity by MTT assay; format: functional, organism-based; details: Human immunodeficiency virus 1, MT4
# [8] = Cytotoxicity against human MT4 cells assessed as inhibition of cell viability by measuring reduction in absorbance at OD540 by MTT assay; format: cell-based
structure (smiles),measurement,setting,value
N#Cc1cc(Cl)cc(Oc2ccnc(NC3CCN(Cc4n[nH]c5ccccc45)CC3)n2)c1,pEC50,[1],< 4.57
same,pEC50,[2],< 4.57
same,pEC50,[3],< 4.57
same,pEC50,[4],< 4.57
same,selectivity ratio,[5],12
same,pEC50,[6],5.64
same,pEC50,[7],< 4.57
same,CC50,[8],27 µM
Cc1ccnc2c1NC(=O)c1cccnc1N2C1CC1 [NEVIRAPINE],pEC50,[1],8.49
same,pEC50,[3],7.85
same,pEC50,[4],8.17
same,selectivity ratio,[5],> 1440
same,pEC50,[6],8.49
same,pEC50,[7],7.47
same,CC50,[8],> 4.6 µM
FC(F)(F)c1cccc(Oc2ccnc(NC3CCN(Cc4n[nH]c5ccccc45)CC3)n2)c1,pEC50,[1],5.05
same,pEC50,[2],< 4.66
same,pEC50,[3],5.01
same,pEC50,[4],5.15
same,selectivity ratio,[5],40
same,pEC50,[6],6.26
same,pEC50,[7],< 4.66
same,CC50,[8],22 µM
FC(F)(F)c1ccccc1Oc1ccnc(NC2CCN(Cc3n[nH]c4ccccc34)CC2)n1,pEC50,[1],5.08
same,pEC50,[2],< 4.82
same,pEC50,[3],5.17
same,pEC50,[4],5.36
same,selectivity ratio,[5],50
same,pEC50,[6],6.52
same,pEC50,[7],< 4.82
same,CC50,[8],15 µM
Clc1ccc(Oc2ccnc(NC3CCN(Cc4n[nH]c5ccccc45)CC3)n2)cc1,pEC50,[1],5.40
same,pEC50,[2],< 4.52
same,pEC50,[3],5.25
same,pEC50,[4],5.64
same,selectivity ratio,[5],130
same,pEC50,[6],6.64
same,pEC50,[7],< 4.52
same,CC50,[8],30 µM
O=C1Nc2ccc(Cl)cc2[C@@](C#CC2CC2)(C(F)(F)F)O1 [EFAVIRENZ],pEC50,[1],7.12
same,pEC50,[4],8.36
same,selectivity ratio,[5],> 2420
same,pEC50,[6],8.59
same,pEC50,[7],6.62
same,CC50,[8],> 6.3 µM
Cc1cc(C#N)cc(C)c1Oc1nc(Nc2ccc(C#N)cc2)nc(N)c1Br [ETRAVIRINE],selectivity ratio,[5],> 28
same,CC50,[8],> 87 µM
Brc1ccccc1Oc1ccnc(NC2CCN(Cc3n[nH]c4ccccc34)CC2)n1,pEC50,[1],5.72
same,pEC50,[2],< 5.28
same,pEC50,[3],6.00
same,pEC50,[4],6.32
same,selectivity ratio,[5],171
same,pEC50,[6],7.51
same,pEC50,[7],< 5.28
same,CC50,[8],5.3 µM
Clc1ccccc1Oc1ccnc(NC2CCN(Cc3n[nH]c4ccccc34)CC2)n1,pEC50,[1],< 5.27
same,pEC50,[2],< 5.27
same,pEC50,[3],5.80
same,pEC50,[4],6.10
same,selectivity ratio,[5],146
same,pEC50,[6],7.43
same,pEC50,[7],< 5.27
same,CC50,[8],5.4 µM
N#Cc1ccc(Oc2ccnc(NC3CCN(Cc4n[nH]c5ccccc45)CC3)n2)cc1,pEC50,[1],5.59
same,pEC50,[2],< 4.51
same,pEC50,[3],5.50
same,pEC50,[4],5.85
same,selectivity ratio,[5],397
same,pEC50,[6],7.11
same,pEC50,[7],< 4.51
same,CC50,[8],31 µM
N#Cc1cccc(Oc2ccnc(NC3CCN(Cc4n[nH]c5ccccc45)CC3)n2)c1,pEC50,[1],< 4.49
same,pEC50,[2],< 4.49
same,pEC50,[3],< 4.49
same,pEC50,[4],< 4.49
same,selectivity ratio,[5],21
same,pEC50,[6],5.82
same,pEC50,[7],< 4.49
same,CC50,[8],32 µM
Cc1ccc(Oc2ccnc(NC3CCN(Cc4n[nH]c5ccccc45)CC3)n2)cc1,pEC50,[1],5.42
same,pEC50,[2],< 4.49
same,pEC50,[3],5.37
same,pEC50,[4],6.11
same,selectivity ratio,[5],229
same,pEC50,[6],6.85
same,pEC50,[7],< 4.49
same,CC50,[8],32 µM
Cc1cccc(C)c1Oc1ccnc(NC2CCN(Cc3n[nH]c4ccccc34)CC2)n1,pEC50,[1],6.66
same,pEC50,[2],< 4.74
same,pEC50,[3],6.40
same,pEC50,[4],7.08
same,selectivity ratio,[5],2090
same,pEC50,[6],8.07
same,pEC50,[7],< 4.74
same,CC50,[8],18 µM
Cc1cn([C@H]2C[C@H](N=[N+]=[N-])[C@@H](CO)O2)c(=O)[nH]c1=O [ZIDOVUDINE],pEC50,[4],6.80
same,selectivity ratio,[5],> 100
same,CC50,[8],> 15 µM
Cc1cc(Oc2ccnc(NC3CCN(Cc4n[nH]c5ccccc45)CC3)n2)cc(C)c1Cl,pEC50,[1],5.09
same,pEC50,[2],< 4.82
same,pEC50,[3],5.06
same,pEC50,[4],5.33
same,selectivity ratio,[5],41
same,pEC50,[6],6.43
same,pEC50,[7],< 4.82
same,CC50,[8],15 µM
Nc1ccn([C@@H]2CS[C@H](CO)O2)c(=O)n1 [LAMIVUDINE],pEC50,[1],7.72
same,pEC50,[2],7.68
same,pEC50,[3],7.92
same,pEC50,[4],7.72
same,selectivity ratio,[5],> 417
same,pEC50,[6],7.74
same,pEC50,[7],7.55
same,CC50,[8],> 7.5 µM
Cc1cc(C#N)cc(C)c1Oc1ccnc(NC2CCN(Cc3n[nH]c4ccccc34)CC2)n1,pEC50,[1],7.11
same,pEC50,[2],< 4.80
same,pEC50,[3],6.96
same,pEC50,[4],7.24
same,selectivity ratio,[5],2500
same,pEC50,[6],8.19
same,pEC50,[7],5.06
same,CC50,[8],16 µM
Clc1cccc(Oc2ccnc(NC3CCN(Cc4n[nH]c5ccccc45)CC3)n2)c1,pEC50,[1],5.01
same,pEC50,[2],< 4.59
same,pEC50,[3],5.05
same,pEC50,[4],5.33
same,selectivity ratio,[5],93
same,pEC50,[6],6.55
same,pEC50,[7],< 4.59
same,CC50,[8],26 µM
FC(F)(F)c1ccc(Oc2ccnc(NC3CCN(Cc4n[nH]c5ccccc45)CC3)n2)cc1,pEC50,[1],5.00
same,pEC50,[2],< 4.54
same,pEC50,[3],< 4.54
same,pEC50,[4],5.32
same,selectivity ratio,[5],62
same,pEC50,[6],6.33
same,pEC50,[7],< 4.54
same,CC50,[8],29 µM
Brc1cccc(Oc2ccnc(NC3CCN(Cc4n[nH]c5ccccc45)CC3)n2)c1,pEC50,[1],5.31
same,pEC50,[2],< 4.66
same,pEC50,[3],5.21
same,pEC50,[4],5.46
same,selectivity ratio,[5],88
same,pEC50,[6],6.60
same,pEC50,[7],< 4.66
same,CC50,[8],22 µM
Brc1ccc(Oc2ccnc(NC3CCN(Cc4n[nH]c5ccccc45)CC3)n2)cc1,pEC50,[1],5.24
same,pEC50,[2],< 4.62
same,pEC50,[3],5.12
same,pEC50,[4],5.70
same,selectivity ratio,[5],114
same,pEC50,[6],6.68
same,pEC50,[7],< 4.62
same,CC50,[8],24 µM
Cc1cccc(Oc2ccnc(NC3CCN(Cc4n[nH]c5ccccc45)CC3)n2)c1,pEC50,[1],5.02
same,pEC50,[2],< 4.49
same,pEC50,[3],< 4.96
same,pEC50,[4],5.40
same,selectivity ratio,[5],82
same,pEC50,[6],6.41
same,pEC50,[7],< 4.49
same,CC50,[8],32 µM
